Source: patent publication US20230101743A1, “SUBSTITUTED TRIAZINE COMPOUNDS AND USES THEREOF” (MUSC FOUNDATION FOR RESEARCH DEVELOPMENT, priority 2020, published 2023)

What was measured:
[1] = Solubilities in water and 1 x PBS buffer (UV-vis); format: physicochemical; details: for Solubility in 1.0 ml PBS buffer: 1 × PBS buffer; for Solubility in 1.0 ml PBS buffer / Solubility in 1.0 ml water: 25° C.; for solubility comparison: both water or 1 x PBS buffer
Description: The molar extinction co-efficients of exemplary cholesterol lowering compounds were measured in 1 x PBS buffer. The compounds were first dissolved in dimethyl sulfoxide. Solutions with a 0.5 mg/ml concentration were then prepared in DMSO. These solutions were diluted further with 1 x PBS by 100-fold, resulting in solutions with a 5 ug/ml concentration. The resulted diluted solutions were then measured and scanned using a UV-vis spectrophotometer for ultra-violet absorbances between 240 nm to 400 nm, using a UV 96-well microplate. The maximum UV absorbances and corresponding wavelengths were recorded (Table 1). The absorbance values were subtracted by that of a blank, 1 x PBS buffer containing […]. The volume of the solutions for UV measurements was 300 ul and the depth of the solutions was 0.7 cm. The molar extinction co-efficients were then calculated based on formula
The solubilities of the exemplary cholesterol lowering compounds were measured in water and 1 x PBS buffer. The compounds were first stirred with water and 1 x PBS buffer individually at room temperature for 1 h. The suspensions were then centrifuged for 2 min. The top clear solutions were filtered through filter paper, resulting in mother liquids, which were centrifuged again and diluted with 1 x PBS buffer for 10-fold for the solubilities in water and 100-fold the solubilities in 1 x PBS buffer. The resulted solutions were measured using a UV-vis spectrophotometer for UV absorbances with the maximum absorbances. The values were subtracted by that of a blank, 1 x PBS buffer. The corrected absorbances were then used to calculate the corresponding concentrations using the formula (1) and extinction coefficients (Table 1) shown above. The individual concentrations were then used to calculate the solubilities in 1.0 mL of water and 1 x PBS buffer.
The compounds were dissolved in DMSO to either 50 mg/ml, 10 mg/ml or 5 mg/ml solutions, which were diluted to 0.5 mg/ml with DMSO. These solutions were then diluted to 5 ug/ml with 1 x PBS buffer. The resulted solutions were then measured in a UV-vis spectrophotometer for UV scanning from 240 nm to 400 nm at 25° C. The absorbance values were subtracted by that of a blank, 1 x PBS buffer containing DMSO. The total volume of the solutions was 300 uL and the path length for each well was 0.7 cm in a UV 96-well plate. The extinction coefficients of the compounds were then calculated based on molar concentrations and the corrected UV absorbances at the maximum absorption (Table 1).
The mixtures wer stirred for 1 h at room temperature, transferred to 1.5 mL Eppendorf tubes, and centrifuged for 2 min. The clear solutions were filtered through filter papers, affording clear solutions, which were centrifuged again for 2 min. The top clear solutions were diluted by 1 x PBS buffer by 10-fold for the solubilities in water and 100-fold for the solubilities in 1 x PBS buffer. The new clear solutions were then measured individually using a UV-vis spectrophotometer and a UV 96-well microplate. The absorbance values were subtracted by that of a blank, 1 x PBS buffer. Concentrations and solubilities of the compounds were then calculated using their extinct coefficients and the corrected UV absorbances at the maximum absorptions (Table 1).

Hepatic neutral lipid = test: Neutral lipid staining (BODIPY 493/503) in iPSC-derived hepatocytes; format: cell-based, human; details: 72 hours; DL-1 2 μg/mL, CP-346086 20 nM
Description: H. Human iPSC derived hepatocytes were treated with DL-1 (2 μg/mL) and MTTP inhibitor CP-346086 (20 nM) for 72 hours. […] (A) Hepatic neutral lipid was determined by staining with 2 μM of BODIPYTM 493/503 for 15 mins and fixed with 4% PFA for microscopy. Nuclei were stained blue by DAPI. Scale bar=100 μm. […] Data are shown as mean±SEM of ten replicates (n=10); ***p<0.001.
K3 iPSC-derived hepatocytes (Day 20) were treated with or without 2 μg/mL of DL-1 or 20 nM of CP-346086 (Sigma) for 72 hours with daily medium change. At the time-point of interest, cells were treated with 2 μM of BODIPY® 493/503 staining solution (ThermoFisher) and 5 μg/mL of Hoechst 33342 (ThermoFisher) in PBS at 37 degrees for 15 minutes. Cells were washed with sterile PBS three times and then fixed with 4% PFA. Fluorescence images were taken using Bio-rad Zoeυ Fluorescent Cell Imager (Bio-Rad) and KEYENCE BZ-X800E Fluorescence Microscope (KEYENCE). Integrated fluorescent intensity was normalized by total cell counts, which is determined by DAPI staining.

[2] = test system: intracellular APOB, LAMP1, and SORTILIN; test: Confocal immunofluorescence of intracellular APOB, LAMP1 and SORTILIN; format: cell-based, human; details: 48 μg/mL, 24 hours
Description: Human iPSC-derived hepatocytes (iPSC-Heps) were treated with 48 μg/mL of DL-9 for 24 hours. Immunofluorescence of intracellular APOB, LAMP1, and SORTILIN was detected by specific antibodies. […] Extracellular APOB was measured by ELISA analysis. APOB level was normalized to DMSO treated group (FIG. 13C). In FIG. 13D intracellular APOB was determined via western blot using a specific anti-APOB antibody. […] Data are shown as mean±SD of triplicates (n=3). Statistical analysis was performed using the student t-test.
For hepatic marker expression analysis, human iPSC-derived hepatocytes (Day 20) were treated with 2 μg/mL of DL-1 for 24 hours. Cells were fixed in 4% paraformaldehyde (PFA) and penetrated with 0.1% Triton-X-100. Cells were incubated with primary antibodies (ALB, 1:1000, Dako; HNF4-a, 1:1000, Santa Cruz) overnight at 4 degrees and then switched to secondary antibodies (Alexa Flour 488 goat anti-rabbit, 1:1000, Invitrogen; Alexa Flour 594 rabbit anti-mouse, 1:2000, Invitrogen). Images were taken using Bio-Rad Zoe™ Fluorescent Cell Imager (Bio-Rad). For intracellular APOB localization, iPSC-heps were treated with 0, 3, 12, 48 μg/mL of DL-9 for 24 hours, and cells were fixed in 4% PFA followed by 0.1% Triton-X-100 penetration. […] Integrated fluorescent intensity was normalized by total cell counts, which is determined by DAPI staining.

Row | Solubility in 1.0 ml PBS buffer [1] [µg] | Solubility in 1.0 ml water ([1]; water) [µg] | solubility comparison [1] | solubility relative to that of DL-9 in 1 x PBS buffer ([1]; 1 x PBS buffer) [fold] | solubility relative to that of DL-9 in water ([1]; water) | SMILES | hepatic lipid accumulation (neutral lipid level) (Hepatic neutral lipid) | colocalization of APOB and SORTILIN [2]
1 | 257 | 1.78 | better solubilities than that for DL-9 | – | – | CC(C)(C)c1cc(Nc2nc(S)nc(S)n2)cc(C(C)(C)C)c1OCCO (racemic) [DL-27, 6-(3,5-di-tert-butyl-4-(2-hydroxyethoxy)-phenylamino)-1,3,5-triazine-2,4-dithiol] | – | –
2 | 686 | 2.22 | better solubilities than that for DL-9 | – | – | Cc1cc(Nc2nc(S)nc(S)n2)cc(C)c1O (racemic) [DL-29, 6-(3,5-dimethyl-4-hydroxyphenylamino)-1,3,5-triazine-2,4-dithiol] | – | –
3 | 459 | 1.35 | better solubilities than that for DL-9 | – | – | CC(C)(C)c1cc(C(C)(C)C)c(Nc2nc(S)nc(S)n2)cc1O (racemic) [DL-30, 6-(2,4-di-tert-butyl-5-hydroxyphenylamino)-1,3,5-triazine-2,4-dithiol] | – | –
4 | 477 | 1.63 | better solubilities than that for DL-9 | ~5 | about 4 fold | CC(C)(C)c1cc(Nc2nc(S)nc(S)n2)c(O)c(C(C)(C)C)c1 (racemic) [DL-31, 6-(3,5-di-tert-butyl-2-hydroxyphenylamino)-1,3,5-triazine-2,4-dithiol] | – | –

The next lines start with the compound.

Row | SMILES | Solubility in 1.0 ml PBS buffer [1] [µg] | Solubility in 1.0 ml water ([1]; water) [µg] | solubility comparison [1] | solubility relative to that of DL-9 in 1 x PBS buffer ([1]; 1 x PBS buffer) [fold] | solubility relative to that of DL-9 in water ([1]; water) | hepatic lipid accumulation (neutral lipid level) (Hepatic neutral lipid) | colocalization of APOB and SORTILIN [2]
5 | Sc1nc(S)nc(Nc2cc(Cl)cc(Cl)c2)n1 (racemic) [DL-5, 6-[(3,5-dichlorophenyl)amino]-1,3,5-triazine-2,4-dithiol] | 61 | 0.27 | – | – | – | – | –
6 | Oc1c(Cl)cc(Nc2nc(S)nc(S)n2)cc1Cl (racemic) [DL-28, 6-(3,5-dichloro-4-hydroxyphenylamino)-1,3,5-triazine-2,4-dithiol] | 348 | 1.25 | better solubilities than that for DL-9 | – | – | – | –
7 | COc1cc(Nc2nc(S)nc(S)n2)cc(OC)c1O (racemic) [DL-32] | 786 | 2.01 | better solubilities than that for DL-9 | – | – | – | –
8 | O=C(Nc1ccc2c(c1)CCN(Cc1ncn[nH]1)C2)c1ccccc1-c1ccc(C(F)(F)F)cc1 [CP-346086, reference compound] | – | – | – | – | – | significant increase of neutral lipid level | –
9 | CC(C)(C)c1cc(Nc2nc(S)nc(S)n2)cc(C(C)(C)C)c1O [DL-9, {4-[(3,5-di-tert-butyl-4-hydroxyphenyl)amino]-6-sulfanidyl-1,3,5-triazin-2-yl}sulfanide] | 91 | 0.40 | best solubility among the first three compounds | – | – | – | colocalization of APOB and SORTILIN
10 | C#CCOCCOCCOCCOCCOc1c(C(C)(C)C)cc(Nc2nc(S)nc(S)n2)cc1C(C)(C)C [DL-33, 6-(3,5-di-tert-butyl-4-(2-(2-(2-(2-(2-propyn-1-yloxy)ethoxy)ethyoxy)etoxy)ethoxy)-phenylamino)-1,3,5-triazine-2,4-dithiol] | 186 | 1.18 | better solubilities than that for DL-9 | – | – | – | –
